Laboratory results from ChEMBL document CHEMBL5465560, “Selectivity Literature for EUbOPEN Chemogenomic Library” (2024).

Assays:
[1] = target: Calcium/calmodulin-dependent protein kinase type II subunit gamma (Homo sapiens) (UniProt Q13555); assay: Selectivity interaction (KinomeScan (DiscoverX)) EUB0000229b CAMK2G; details: at 10 µM
[2] = Selectivity interaction (KinomeScan (DiscoverX)) EUB0000695a CDPK1; details: at 100 nM
[3] = target: T1, Tyrosine-protein kinase TXK (Homo sapiens) (UniProt P42681); assay: Selectivity interaction (KinomeScan (DiscoverX)) EUB0000666a TXK; details: at 10 µM
T1 sequence (whole entry): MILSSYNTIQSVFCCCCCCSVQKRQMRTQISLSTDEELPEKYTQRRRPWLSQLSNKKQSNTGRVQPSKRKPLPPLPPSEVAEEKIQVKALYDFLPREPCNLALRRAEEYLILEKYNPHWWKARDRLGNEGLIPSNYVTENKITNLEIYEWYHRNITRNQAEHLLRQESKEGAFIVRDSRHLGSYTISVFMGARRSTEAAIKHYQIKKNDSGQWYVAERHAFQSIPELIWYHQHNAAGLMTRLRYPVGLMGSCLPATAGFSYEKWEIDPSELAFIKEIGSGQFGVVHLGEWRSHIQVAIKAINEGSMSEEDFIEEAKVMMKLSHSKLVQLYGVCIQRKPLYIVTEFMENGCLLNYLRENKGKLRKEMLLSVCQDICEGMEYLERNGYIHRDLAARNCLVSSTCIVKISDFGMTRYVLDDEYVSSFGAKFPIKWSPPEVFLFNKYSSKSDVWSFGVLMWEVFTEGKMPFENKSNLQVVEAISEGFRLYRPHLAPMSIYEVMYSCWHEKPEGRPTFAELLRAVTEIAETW

[4] = target: T2, Serine/threonine-protein kinase D3 (Homo sapiens) (UniProt O94806); details: at 10 µM
T2 sequence (whole entry): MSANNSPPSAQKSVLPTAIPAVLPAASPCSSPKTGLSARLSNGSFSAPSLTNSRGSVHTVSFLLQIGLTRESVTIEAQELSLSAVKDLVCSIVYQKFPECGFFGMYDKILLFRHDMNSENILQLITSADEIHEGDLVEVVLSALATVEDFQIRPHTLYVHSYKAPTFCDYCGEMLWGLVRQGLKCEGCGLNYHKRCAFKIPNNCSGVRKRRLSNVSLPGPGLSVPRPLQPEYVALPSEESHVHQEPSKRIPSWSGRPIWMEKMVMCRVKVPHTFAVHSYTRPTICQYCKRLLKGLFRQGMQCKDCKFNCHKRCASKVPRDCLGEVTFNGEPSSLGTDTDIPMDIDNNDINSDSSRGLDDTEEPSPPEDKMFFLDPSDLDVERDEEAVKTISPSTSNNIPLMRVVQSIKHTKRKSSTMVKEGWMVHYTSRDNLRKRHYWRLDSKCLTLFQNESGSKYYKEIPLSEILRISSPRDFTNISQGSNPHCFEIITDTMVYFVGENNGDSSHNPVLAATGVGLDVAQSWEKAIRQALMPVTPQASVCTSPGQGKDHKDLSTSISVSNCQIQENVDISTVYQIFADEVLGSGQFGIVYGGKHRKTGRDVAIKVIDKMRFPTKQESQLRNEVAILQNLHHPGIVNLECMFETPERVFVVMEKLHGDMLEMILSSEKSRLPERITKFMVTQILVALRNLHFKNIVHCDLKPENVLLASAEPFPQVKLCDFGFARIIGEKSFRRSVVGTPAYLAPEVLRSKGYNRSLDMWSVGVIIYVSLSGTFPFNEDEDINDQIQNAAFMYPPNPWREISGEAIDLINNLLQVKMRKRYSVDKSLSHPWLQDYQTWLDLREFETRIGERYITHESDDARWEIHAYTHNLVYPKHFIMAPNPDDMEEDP

[5] = target: T3, Cyclin-dependent kinase-like 5 (Homo sapiens) (UniProt O76039); assay: Selectivity interaction (KinomeScan (DiscoverX)) EUB0001049a CDKL5; details: at 1 µM
T3 sequence (whole entry): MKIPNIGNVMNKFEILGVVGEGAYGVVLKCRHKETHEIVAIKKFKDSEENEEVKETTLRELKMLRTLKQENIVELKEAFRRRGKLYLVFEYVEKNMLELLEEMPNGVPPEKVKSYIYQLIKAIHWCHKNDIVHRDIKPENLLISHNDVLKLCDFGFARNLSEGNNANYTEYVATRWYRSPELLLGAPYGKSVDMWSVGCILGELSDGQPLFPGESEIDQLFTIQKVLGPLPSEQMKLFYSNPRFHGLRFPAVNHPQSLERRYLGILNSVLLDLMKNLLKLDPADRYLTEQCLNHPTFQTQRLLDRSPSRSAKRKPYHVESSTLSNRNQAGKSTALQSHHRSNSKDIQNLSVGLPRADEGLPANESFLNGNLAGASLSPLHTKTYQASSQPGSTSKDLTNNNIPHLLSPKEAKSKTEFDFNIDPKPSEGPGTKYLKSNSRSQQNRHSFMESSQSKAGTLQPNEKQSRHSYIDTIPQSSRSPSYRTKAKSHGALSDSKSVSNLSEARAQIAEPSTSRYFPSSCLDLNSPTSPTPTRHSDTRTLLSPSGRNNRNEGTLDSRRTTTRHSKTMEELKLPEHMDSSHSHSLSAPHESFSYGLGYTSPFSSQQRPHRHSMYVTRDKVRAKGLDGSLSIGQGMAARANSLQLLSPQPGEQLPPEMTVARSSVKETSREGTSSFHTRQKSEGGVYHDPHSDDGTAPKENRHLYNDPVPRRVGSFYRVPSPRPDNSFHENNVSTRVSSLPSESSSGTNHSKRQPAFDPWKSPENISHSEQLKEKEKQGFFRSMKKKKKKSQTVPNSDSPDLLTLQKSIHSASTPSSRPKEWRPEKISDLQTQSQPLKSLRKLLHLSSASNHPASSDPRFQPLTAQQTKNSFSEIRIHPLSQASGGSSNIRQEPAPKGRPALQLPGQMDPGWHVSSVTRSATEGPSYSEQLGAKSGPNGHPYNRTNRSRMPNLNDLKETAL

[6] = target: Tyrosine-protein kinase Lyn (Homo sapiens, UniProt P07948); assay: Selectivity interaction (KinomeScan (DiscoverX)) EUB0001049a LYN; details: at 1 µM
[7] = target: Serine/threonine-protein kinase 16 (Homo sapiens, UniProt O75716); assay: Selectivity interaction (ActivX KiNativ screen (kinase selectivity in THP-1 cell lysates)) EUB0000639a STK16; format: subcellular; details: lysate, at 5 µM
[8] = system: Epidermal growth factor receptor (Homo sapiens), P00533 [UNDEFINED MUTATION]; assay: Selectivity interaction (Ambit KINOMEscan and KiNATiv profiling in Jurkat cells) EUB0000090b EGFR; format: cell-based; details: at 1 µM
Epidermal growth factor receptor (Homo sapiens), P00533 [UNDEFINED MUTATION], sequence (P00533 whole entry, looked up, change not shown): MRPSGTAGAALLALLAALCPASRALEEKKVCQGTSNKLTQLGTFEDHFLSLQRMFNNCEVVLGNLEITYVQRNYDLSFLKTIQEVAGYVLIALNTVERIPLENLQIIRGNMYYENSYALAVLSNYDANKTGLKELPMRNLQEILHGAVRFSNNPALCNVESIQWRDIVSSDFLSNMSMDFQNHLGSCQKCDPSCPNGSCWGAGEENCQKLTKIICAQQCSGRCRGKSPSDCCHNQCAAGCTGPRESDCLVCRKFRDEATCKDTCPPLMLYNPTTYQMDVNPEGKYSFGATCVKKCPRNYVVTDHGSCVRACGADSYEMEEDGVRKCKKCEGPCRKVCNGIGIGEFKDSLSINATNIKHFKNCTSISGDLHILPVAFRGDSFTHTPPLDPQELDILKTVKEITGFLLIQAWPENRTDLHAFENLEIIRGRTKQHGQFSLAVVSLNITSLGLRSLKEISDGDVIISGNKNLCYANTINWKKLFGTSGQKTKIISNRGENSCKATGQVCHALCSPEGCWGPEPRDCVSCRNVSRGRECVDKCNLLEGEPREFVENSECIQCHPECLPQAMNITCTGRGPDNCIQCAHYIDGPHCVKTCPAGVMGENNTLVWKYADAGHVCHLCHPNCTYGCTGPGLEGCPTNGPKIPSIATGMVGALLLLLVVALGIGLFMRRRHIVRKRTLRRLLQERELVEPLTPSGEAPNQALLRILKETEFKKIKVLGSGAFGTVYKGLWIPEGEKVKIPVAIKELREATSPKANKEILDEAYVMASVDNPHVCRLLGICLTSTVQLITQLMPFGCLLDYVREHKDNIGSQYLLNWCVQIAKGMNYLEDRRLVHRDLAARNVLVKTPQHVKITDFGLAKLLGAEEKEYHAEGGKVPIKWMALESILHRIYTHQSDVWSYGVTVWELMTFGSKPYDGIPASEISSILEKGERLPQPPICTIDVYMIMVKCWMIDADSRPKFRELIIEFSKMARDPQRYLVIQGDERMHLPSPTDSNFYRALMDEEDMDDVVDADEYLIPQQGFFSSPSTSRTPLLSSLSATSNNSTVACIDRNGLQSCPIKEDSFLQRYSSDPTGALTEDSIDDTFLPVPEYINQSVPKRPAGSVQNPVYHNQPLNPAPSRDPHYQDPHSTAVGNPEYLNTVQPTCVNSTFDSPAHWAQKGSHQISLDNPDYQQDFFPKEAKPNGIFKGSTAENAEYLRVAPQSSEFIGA

Serine/threonine-protein kinase 16, sequence (O75716 whole entry): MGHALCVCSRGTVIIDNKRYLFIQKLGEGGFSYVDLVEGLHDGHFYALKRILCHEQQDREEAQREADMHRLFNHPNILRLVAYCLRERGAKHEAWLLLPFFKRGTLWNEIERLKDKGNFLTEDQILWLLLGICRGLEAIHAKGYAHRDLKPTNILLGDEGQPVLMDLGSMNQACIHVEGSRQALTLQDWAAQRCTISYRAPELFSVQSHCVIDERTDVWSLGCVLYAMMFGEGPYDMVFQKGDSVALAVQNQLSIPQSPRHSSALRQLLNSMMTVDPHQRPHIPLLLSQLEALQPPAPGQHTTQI
Calcium/calmodulin-dependent protein kinase type II subunit gamma (Homo sapiens), sequence (Q13555 whole entry): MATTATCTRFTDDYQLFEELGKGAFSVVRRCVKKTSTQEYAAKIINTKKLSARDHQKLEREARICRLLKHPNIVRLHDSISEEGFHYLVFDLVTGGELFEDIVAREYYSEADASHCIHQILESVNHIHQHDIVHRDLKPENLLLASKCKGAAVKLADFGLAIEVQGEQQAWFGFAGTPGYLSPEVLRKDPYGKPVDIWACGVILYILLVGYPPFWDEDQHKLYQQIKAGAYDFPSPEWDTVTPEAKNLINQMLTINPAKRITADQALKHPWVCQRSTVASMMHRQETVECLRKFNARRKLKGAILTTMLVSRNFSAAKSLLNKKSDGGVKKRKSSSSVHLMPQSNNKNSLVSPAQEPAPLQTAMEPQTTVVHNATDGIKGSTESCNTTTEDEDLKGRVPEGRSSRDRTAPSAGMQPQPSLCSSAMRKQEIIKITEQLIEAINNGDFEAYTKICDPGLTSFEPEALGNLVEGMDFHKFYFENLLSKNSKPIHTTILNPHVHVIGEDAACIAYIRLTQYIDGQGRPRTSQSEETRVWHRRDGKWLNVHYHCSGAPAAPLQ
Tyrosine-protein kinase Lyn, sequence (P07948 2-512 limits assumed): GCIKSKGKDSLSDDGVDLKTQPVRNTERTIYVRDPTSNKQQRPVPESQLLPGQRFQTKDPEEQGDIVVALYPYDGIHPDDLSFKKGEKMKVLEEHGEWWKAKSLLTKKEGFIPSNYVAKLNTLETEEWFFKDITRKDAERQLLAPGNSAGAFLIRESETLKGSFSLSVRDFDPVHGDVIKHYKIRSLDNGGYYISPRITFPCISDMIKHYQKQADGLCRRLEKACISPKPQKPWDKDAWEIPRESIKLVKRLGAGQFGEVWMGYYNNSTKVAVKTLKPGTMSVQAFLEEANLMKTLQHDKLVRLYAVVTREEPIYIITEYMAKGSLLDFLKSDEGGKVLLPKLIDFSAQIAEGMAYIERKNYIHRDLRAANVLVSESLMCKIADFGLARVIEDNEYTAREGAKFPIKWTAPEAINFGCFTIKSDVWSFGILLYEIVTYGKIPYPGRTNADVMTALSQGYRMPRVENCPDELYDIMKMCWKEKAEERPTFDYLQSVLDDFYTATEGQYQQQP

Compound: COc1cc(N(C)c2ccnc3ccc(C(F)(F)F)cc23)cc(OC)c1OC
- % binding [1]: 90%

Compound: Cc1cc(F)c(C(=O)Nc2cccc(-c3nncn3C(C)C)n2)cc1-n1cnc(C2CC2)c1
- % of control [2]: 100%

Compound: O=C(NOC[C@H](O)CO)c1ccc(F)c(F)c1Nc1ccc(I)cc1F
- % of control [3]: 100%

Compound: Cc1cc([C@@H](C)Nc2ccccc2C(=O)O)c2nc(N3CCOCC3)cc(=O)n2c1 [AZD-6482]
- % of control [4]: 100%

Compound: COc1cc(Nc2nc(C)cc(-c3cnn4nc(OC)ccc34)n2)cc(C(F)(F)F)c1
- % of control [5]: 82%
- % of control [6]: 89%

Compound: CC[C@@H]1[C@H](F)C(=O)N[C@@H]1COc1nccc2cc(C(N)=O)c(OC)cc12 [ZIMLOVISERTIB]
- % of inhibition [7]: 81.9%

Compound: CN(C)C/C=C/C(=O)Nc1ccc(C(=O)N2CCCC(Nc3ncc(Cl)c(-c4c[nH]c5ccccc45)n3)C2)cc1 (stereo not drawn)
- % of control [8]: 94%
